# Key:
# [1] = target: Tyrosine-protein kinase Blk (Homo sapiens) (UniProt P51451); test: Selectivity interaction (KinomeScan (DiscoverX)) EUB0001049a BLK; details: at 1 µM
# [2] = target: ALK tyrosine kinase receptor (Homo sapiens, UniProt Q9UM73); test: Selectivity interaction (KinaseProfiler screening (Millipore)) EUB0000601a ALK; details: at 3 µM
# [3] = target: cAMP-dependent protein kinase catalytic subunit alpha (Homo sapiens, UniProt P17612); test: Selectivity interaction (KinomeScan (DiscoverX)) EUB0001079a PRKACA; details: at 1 µM
# [4] = target: Ribosomal protein S6 kinase alpha-5 (Homo sapiens) (UniProt O75582); test: Selectivity interaction (KinomeScan (DiscoverX)) EUB0001079a RPS6KA5; details: at 1 µM
# [5] = target: Tyrosine-protein kinase Fer (Homo sapiens) (UniProt P16591); test: Selectivity interaction (Kinase panel (Invitrogen)) EUB0000639a FER; details: at 200 nM
# [6] = target: T1, Activin receptor type-1B (Homo sapiens) (UniProt P36896); test: Selectivity interaction (Kinase panel (Invitrogen)) EUB0000639a ACVR1B; details: at 200 nM
# T1 sequence (whole entry): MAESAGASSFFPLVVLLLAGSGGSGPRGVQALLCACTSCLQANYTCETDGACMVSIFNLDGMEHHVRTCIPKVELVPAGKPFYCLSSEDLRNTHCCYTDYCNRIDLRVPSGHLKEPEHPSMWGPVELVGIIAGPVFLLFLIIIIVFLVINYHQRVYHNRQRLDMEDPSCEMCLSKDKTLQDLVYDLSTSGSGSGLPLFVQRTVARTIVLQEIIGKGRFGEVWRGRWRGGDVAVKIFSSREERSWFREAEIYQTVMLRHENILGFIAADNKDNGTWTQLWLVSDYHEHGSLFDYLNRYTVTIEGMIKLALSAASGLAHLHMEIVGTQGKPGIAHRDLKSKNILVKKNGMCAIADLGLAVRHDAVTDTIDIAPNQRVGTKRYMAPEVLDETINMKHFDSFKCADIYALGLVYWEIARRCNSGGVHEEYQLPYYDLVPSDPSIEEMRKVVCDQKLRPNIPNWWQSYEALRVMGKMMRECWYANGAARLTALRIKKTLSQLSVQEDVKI
# [7] = target: T2, Mitogen-activated protein kinase kinase kinase 3 (Homo sapiens) (UniProt Q99759); test: Selectivity interaction (ActivX KiNativ screen (kinase selectivity in THP-1 cell lysates)) EUB0000639a MAP3K3; type: subcellular; details: lysate, at 0.01 µM
# T2 sequence (whole entry): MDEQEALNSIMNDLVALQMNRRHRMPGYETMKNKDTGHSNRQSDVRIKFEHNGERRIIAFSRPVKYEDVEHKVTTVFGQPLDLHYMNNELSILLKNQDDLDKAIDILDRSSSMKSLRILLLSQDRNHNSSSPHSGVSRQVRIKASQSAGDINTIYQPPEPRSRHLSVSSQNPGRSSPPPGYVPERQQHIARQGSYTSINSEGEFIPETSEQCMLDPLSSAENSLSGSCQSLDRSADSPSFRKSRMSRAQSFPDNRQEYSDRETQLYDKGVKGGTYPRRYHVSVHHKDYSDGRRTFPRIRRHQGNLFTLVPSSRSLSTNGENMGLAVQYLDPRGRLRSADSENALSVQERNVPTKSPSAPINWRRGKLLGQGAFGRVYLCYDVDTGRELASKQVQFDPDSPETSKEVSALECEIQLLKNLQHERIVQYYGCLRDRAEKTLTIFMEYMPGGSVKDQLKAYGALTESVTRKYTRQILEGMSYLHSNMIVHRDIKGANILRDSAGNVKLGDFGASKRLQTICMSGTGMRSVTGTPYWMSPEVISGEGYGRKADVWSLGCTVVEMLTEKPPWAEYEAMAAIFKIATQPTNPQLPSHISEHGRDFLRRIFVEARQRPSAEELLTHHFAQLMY
# [8] = target: Glycogen synthase kinase-3 alpha (Homo sapiens, UniProt P49840); test: Selectivity interaction (Kinase counterscreening (biochemical assay)) EUB0000604a GSK3A
# [9] = target: Serine/threonine-protein kinase PAK 3 (Homo sapiens) (UniProt O75914); test: Selectivity interaction (Ambit KINOMEscan and KiNATiv profiling in Jurkat cells) EUB0000090b PAK3; type: cell-based; details: at 1 µM
# [10] = target: T3, Dual specificity mitogen-activated protein kinase kinase 4 (Homo sapiens) (UniProt P45985); test: Selectivity interaction (KinomeScan (DiscoverX)) EUB0000618a MAP2K4; details: at 10 µM
# T3 sequence (whole entry): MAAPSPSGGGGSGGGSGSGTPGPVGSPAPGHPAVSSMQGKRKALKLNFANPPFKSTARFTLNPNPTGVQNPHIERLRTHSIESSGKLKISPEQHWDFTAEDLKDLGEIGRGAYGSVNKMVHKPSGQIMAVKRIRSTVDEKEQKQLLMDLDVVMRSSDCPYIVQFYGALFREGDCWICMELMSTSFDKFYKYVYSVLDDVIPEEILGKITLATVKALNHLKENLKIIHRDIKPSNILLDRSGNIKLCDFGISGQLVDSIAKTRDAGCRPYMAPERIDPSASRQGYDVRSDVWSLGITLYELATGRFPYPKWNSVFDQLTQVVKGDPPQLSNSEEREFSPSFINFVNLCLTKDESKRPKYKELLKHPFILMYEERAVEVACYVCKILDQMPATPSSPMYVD
# [11] = target: SRSF protein kinase 1 (Homo sapiens, UniProt Q96SB4); test: Selectivity interaction (Upstate Kinase Profiler service (Millipore)) EUB0000056c SRPK1; details: at 1 µM
# [12] = target: T4, Phosphorylase b kinase gamma catalytic chain, liver/testis isoform (Homo sapiens) (UniProt P15735); test: Selectivity interaction (KinomeScan (DiscoverX)) EUB0000695a PHKG2; details: at 100 nM
# T4 sequence (whole entry): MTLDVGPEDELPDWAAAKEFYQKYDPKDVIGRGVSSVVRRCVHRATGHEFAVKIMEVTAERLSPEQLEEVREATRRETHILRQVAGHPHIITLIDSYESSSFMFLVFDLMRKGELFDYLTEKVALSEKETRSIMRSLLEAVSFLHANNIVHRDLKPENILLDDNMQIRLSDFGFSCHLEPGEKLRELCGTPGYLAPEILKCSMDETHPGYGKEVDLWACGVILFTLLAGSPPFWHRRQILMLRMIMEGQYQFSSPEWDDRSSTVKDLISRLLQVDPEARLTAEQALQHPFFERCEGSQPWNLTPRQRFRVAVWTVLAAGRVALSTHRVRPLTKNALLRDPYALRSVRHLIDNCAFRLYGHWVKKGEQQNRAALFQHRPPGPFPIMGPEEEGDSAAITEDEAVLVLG
# [13] = target: Angiopoietin-1 receptor (Homo sapiens) (UniProt Q02763); test: Selectivity interaction (SelectScreen profiling (Invitrogen)) EUB0000607a TEK; details: at 2 µM
# [14] = target: Mitogen-activated protein kinase kinase kinase 11 (Homo sapiens) (UniProt Q16584); test: Selectivity interaction (LanthaScreen Eu Kinase Binding Assay) EUB0001632a MAP3K11; details: at 10 µM
# Mitogen-activated protein kinase kinase kinase 11 (Homo sapiens), sequence (Q16584 whole entry, looked up): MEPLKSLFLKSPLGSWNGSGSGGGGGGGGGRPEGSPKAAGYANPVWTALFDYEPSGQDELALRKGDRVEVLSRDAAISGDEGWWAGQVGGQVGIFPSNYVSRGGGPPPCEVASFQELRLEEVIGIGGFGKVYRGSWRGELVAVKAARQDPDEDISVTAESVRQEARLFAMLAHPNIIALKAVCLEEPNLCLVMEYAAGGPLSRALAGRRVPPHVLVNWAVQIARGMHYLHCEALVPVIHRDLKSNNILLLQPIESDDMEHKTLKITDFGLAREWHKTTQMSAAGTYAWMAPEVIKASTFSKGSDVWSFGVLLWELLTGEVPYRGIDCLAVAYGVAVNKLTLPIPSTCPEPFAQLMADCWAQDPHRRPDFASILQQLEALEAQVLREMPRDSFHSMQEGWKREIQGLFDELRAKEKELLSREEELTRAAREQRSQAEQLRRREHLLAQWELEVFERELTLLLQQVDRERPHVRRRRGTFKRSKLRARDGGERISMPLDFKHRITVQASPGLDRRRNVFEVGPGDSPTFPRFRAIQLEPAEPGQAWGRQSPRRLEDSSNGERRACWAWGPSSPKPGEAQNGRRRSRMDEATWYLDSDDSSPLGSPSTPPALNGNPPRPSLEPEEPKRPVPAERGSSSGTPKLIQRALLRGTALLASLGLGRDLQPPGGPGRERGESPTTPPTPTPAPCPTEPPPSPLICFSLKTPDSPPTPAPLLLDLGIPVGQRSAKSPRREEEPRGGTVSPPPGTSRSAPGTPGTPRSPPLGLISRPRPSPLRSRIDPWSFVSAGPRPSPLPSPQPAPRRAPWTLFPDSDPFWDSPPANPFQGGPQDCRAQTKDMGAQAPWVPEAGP
# Serine/threonine-protein kinase PAK 3 (Homo sapiens), sequence (O75914 whole entry, looked up): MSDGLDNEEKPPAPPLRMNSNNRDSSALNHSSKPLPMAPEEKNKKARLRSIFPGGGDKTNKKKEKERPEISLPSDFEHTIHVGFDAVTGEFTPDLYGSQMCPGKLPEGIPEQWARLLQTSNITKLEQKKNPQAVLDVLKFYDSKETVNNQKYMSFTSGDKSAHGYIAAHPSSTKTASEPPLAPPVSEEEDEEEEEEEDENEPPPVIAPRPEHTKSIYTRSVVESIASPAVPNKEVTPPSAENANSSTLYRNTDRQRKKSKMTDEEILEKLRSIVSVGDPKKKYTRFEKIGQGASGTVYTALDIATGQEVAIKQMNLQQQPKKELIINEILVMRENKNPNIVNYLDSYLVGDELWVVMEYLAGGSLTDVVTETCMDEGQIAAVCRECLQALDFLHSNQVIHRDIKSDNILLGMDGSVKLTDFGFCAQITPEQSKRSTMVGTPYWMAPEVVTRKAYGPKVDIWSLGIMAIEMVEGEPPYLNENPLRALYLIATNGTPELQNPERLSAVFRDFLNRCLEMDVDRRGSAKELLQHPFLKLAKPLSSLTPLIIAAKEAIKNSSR
# SRSF protein kinase 1, sequence (Q96SB4 whole entry, canonical isoform): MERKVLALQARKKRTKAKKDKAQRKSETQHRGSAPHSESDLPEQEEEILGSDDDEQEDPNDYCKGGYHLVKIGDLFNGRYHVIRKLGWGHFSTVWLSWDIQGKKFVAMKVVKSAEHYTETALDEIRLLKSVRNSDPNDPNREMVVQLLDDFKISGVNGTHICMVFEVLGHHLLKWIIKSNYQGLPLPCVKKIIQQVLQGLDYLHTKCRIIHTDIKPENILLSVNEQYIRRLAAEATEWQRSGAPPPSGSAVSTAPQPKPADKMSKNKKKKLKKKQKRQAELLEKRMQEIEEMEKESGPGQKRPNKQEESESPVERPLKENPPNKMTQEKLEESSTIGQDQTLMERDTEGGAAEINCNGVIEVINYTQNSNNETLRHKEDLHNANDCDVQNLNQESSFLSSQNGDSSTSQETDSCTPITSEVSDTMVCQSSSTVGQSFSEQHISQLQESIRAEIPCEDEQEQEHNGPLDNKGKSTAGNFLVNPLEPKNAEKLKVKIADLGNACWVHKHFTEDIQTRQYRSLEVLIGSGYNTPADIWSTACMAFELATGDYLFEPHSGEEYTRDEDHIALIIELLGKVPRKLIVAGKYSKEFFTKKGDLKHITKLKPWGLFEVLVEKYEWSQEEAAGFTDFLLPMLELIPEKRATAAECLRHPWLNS
# Tyrosine-protein kinase Blk (Homo sapiens), sequence (P51451 2-505 limits assumed): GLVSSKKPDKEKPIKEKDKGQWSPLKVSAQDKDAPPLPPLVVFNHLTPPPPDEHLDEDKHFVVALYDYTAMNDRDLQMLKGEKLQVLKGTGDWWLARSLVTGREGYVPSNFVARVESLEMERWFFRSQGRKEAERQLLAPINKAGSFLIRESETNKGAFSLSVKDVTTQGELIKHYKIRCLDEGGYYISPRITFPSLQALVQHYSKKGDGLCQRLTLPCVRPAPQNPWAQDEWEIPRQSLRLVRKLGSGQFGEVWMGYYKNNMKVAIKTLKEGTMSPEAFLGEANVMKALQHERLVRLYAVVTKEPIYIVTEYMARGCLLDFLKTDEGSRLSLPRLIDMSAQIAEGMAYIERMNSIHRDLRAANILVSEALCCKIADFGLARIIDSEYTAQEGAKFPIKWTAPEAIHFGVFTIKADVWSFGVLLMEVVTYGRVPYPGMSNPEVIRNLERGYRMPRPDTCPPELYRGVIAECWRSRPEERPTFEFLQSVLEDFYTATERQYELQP
# Tyrosine-protein kinase Fer (Homo sapiens), sequence (P16591 whole entry, looked up): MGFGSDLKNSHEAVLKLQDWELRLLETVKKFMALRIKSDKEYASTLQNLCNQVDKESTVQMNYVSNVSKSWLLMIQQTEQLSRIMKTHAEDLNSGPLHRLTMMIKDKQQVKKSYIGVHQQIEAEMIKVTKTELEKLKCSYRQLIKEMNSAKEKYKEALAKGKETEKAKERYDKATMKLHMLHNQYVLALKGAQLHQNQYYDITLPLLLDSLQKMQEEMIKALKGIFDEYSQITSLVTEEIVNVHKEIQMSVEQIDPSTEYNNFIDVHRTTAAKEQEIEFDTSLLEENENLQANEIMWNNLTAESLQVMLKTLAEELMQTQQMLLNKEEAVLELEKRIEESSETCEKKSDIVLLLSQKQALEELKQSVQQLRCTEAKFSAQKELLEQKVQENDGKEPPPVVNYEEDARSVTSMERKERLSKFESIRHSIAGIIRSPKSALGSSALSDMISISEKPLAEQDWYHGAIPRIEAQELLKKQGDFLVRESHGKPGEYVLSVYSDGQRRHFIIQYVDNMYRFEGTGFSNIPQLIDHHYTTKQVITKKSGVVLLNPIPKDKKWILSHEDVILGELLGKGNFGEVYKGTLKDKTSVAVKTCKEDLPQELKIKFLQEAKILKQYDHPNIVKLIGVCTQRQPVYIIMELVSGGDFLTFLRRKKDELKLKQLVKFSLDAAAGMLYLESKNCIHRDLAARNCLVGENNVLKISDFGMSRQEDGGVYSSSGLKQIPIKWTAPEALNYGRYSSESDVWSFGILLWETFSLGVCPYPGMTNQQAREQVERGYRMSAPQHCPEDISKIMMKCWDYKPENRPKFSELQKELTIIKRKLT
# Angiopoietin-1 receptor (Homo sapiens), sequence (Q02763 whole entry): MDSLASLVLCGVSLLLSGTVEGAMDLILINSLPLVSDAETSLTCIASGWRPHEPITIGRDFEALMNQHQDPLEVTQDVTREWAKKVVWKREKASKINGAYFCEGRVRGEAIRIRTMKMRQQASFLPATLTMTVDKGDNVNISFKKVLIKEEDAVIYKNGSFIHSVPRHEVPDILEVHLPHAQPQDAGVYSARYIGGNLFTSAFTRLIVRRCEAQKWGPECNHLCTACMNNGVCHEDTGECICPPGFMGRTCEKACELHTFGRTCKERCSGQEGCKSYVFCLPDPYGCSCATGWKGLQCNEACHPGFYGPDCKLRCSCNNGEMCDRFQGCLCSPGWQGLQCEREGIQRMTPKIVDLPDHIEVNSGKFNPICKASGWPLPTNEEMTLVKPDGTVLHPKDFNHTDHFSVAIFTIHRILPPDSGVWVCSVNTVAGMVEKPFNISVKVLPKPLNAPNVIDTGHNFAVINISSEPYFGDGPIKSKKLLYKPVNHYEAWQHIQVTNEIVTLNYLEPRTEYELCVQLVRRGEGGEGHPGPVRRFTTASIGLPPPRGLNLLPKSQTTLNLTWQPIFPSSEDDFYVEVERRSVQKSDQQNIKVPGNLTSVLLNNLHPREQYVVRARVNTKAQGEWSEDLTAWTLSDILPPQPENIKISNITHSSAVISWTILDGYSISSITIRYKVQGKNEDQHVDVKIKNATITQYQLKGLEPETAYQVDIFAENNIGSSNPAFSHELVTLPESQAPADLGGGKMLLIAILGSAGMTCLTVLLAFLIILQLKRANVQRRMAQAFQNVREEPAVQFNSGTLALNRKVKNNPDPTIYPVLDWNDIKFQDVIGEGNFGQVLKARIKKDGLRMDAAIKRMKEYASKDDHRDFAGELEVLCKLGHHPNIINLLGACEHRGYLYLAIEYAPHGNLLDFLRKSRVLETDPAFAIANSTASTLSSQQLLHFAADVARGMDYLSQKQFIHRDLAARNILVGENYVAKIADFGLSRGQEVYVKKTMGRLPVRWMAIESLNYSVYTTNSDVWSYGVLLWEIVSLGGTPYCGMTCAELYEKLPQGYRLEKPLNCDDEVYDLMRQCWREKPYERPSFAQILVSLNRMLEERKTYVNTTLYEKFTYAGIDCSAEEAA
# Glycogen synthase kinase-3 alpha, sequence (P49840 whole entry): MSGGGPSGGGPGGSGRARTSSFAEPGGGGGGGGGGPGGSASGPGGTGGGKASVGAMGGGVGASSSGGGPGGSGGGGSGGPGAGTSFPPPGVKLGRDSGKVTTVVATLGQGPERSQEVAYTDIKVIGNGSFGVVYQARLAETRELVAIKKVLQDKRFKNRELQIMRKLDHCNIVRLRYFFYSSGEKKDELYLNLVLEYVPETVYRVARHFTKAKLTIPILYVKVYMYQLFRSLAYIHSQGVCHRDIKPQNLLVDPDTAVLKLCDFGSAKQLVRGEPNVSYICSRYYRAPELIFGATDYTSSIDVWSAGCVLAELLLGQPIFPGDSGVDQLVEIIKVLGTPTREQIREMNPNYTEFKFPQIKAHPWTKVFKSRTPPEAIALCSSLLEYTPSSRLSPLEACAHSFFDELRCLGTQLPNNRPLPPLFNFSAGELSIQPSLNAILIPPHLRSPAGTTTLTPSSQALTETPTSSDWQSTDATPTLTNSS
compound,measurement,setting,value
COc1cc(Nc2nc(C)cc(-c3cnn4nc(OC)ccc34)n2)cc(C(F)(F)F)c1,% of control,[1],100%
CCc1cc(Nc2nccc(-c3c(-c4ccc(OC)c(C(=O)Nc5c(F)cccc5F)c4)nc4ccccn34)n2)c(OC)cc1N1CCC(N2CCN(S(C)(=O)=O)CC2)CC1,% of inhibition,[2],39%
Nc1cnc(N2CCc3cc(S(=O)(=O)Nc4c(F)cc(Cl)cc4F)cc(N4CCCC4=O)c32)nc1 [TP-020n],% of control,[3],100%
same,% of control,[4],95%
CC[C@@H]1[C@H](F)C(=O)N[C@@H]1COc1nccc2cc(C(N)=O)c(OC)cc12 [ZIMLOVISERTIB],% of inhibition,[5],9.46%
same,% of inhibition,[6],2.54%
same,% of inhibition,[7],-6.1%
Cc1cnc(Nc2ccc(F)cc2Cl)nc1-c1c[nH]c(C(=O)N[C@H](CO)c2cccc(Cl)c2)c1,Ki,[8],400 nM
CN(C)C/C=C/C(=O)Nc1ccc(C(=O)N2CCCC(Nc3ncc(Cl)c(-c4c[nH]c5ccccc45)n3)C2)cc1 (centres undefined),% of control,[9],80%
O[C@H]1CC[C@H](Nc2ncc3nc(Nc4c(F)cc(F)cc4F)n([C@H]4CCOC4)c3n2)CC1,% of control,[10],27%
Cc1ccc(-c2ccc3c(ccc4sc5c(c43)NC[C@@H](C)NC5=O)n2)cn1,% of inhibition,[11],34%
Cc1cc(F)c(C(=O)Nc2cccc(-c3nncn3C(C)C)n2)cc1-n1cnc(C2CC2)c1,% of control,[12],85%
CNC(=O)Nc1ccc(-c2nc(N3CC4CCC(C3)O4)c3cnn(C4CCC5(CC4)OCCO5)c3n2)cc1,% of inhibition,[13],10%
Cn1cc(-n2cnc3c(NCc4nc5cc(Cl)c(Cl)cc5[nH]4)nc(N4CCOCC4)nc32)cn1,% of inhibition,[14],-0.811%
